Results on six compounds are retold here after patent EP2832347B1, “Method for identifying patchouli odorant materials” (Takasago International Corporation, priority 2013, dated 2015).

The target in data set [1] is T1, OR11A1 (Homo sapiens, UniProt Q9GZK7).
T1 construct: expressed in transfected cells; host or cells: HEKOlf (HEK293 stably expressing human Galpha-olf and bovine CNGA2)
T1 sequence (Q9GZK7 1-315): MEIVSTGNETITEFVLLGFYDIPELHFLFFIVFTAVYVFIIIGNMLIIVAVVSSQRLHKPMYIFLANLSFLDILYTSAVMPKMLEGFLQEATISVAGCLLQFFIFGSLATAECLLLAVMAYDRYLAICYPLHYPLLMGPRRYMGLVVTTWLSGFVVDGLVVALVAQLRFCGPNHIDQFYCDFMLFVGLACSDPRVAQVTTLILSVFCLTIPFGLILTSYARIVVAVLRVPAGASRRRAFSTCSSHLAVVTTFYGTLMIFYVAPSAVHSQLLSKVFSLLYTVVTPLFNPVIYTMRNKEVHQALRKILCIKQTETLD
Description: CRE-luciferase reporter assay in HEKOlf cells transiently transfected with OR11A1. Format: cell-based. To be noted: for EC50: Example 4, Table 5, 0.03-100 µM tested; for Potency and efficacy on OR11A1 (comparison between odorants): 0.1 to 100 µM (Figure 6). The procedure: (§1) The experiments were performed using a HEK293 cell line (deposited at the ATCC under accession n° CRL-1573) stably expressing the Gαolf G-protein and the cyclic nucleotide gated ion channel A2 subunit (CNGA2) (herein called HEKOlf). As described by Shirokova et al., 2005, the human Gαolf cDNA was cloned into the mammalian expression vector pPuro and cDNA for the bovine cyclic nucleotide gated ion channel A2 (CNGA2) subunit was cloned into the mammalian expression vector pcDNA3. Both constructs were transfected using Lipofectamine2000 (Invitrogen) following the manufacturer's instructions. Cellular clones stably expressing Gαolf and CNGA2 were obtained by antibiotic selection with 0.5µg/ml Puromycin and 200µg/ml Geneticin.
All odorants were stored in the dark at 4°C upon delivery. They were prepared at 100mM stock solutions using DMSO as a solvent and stored at -20°C. On the day of the experiment the different stock solutions were directly diluted in the assay buffer (Tyrode's buffer) having the following composition: 5mM KCI, 130mM NaCl, 2mM CaCl2, 5mM NaHCO3, 1mM MgCl2, 20mM HEPES, pH7.4.
(§2) All transient transfections were performed with Lipofectamine 2000 (Invitrogen) according to the manufacturer's protocol. 10µl Lipofectamine 2000 were diluted in 500 µl DMEM and incubated for 5 minutes at room temperature. At the same time, 3µg of plasmid DNA were diluted in 500µl DMEM and added to the Lipofectamine 2000 mix to obtain a final volume of 1000µl. After incubation for a further 30 minutes at room temperature, the DNA-Lipofectamine complex was added to 1000µl of a cell suspension containing 1.600.000 cells/ml. Subsequently, 25µl per well of the complete mixture were seeded in black 384 well polystyrene assay plates. 25µl DMEM containing 20% FBS were added to each well 3 hours post-transfection.
(§3) The cDNAs for all olfactory receptors and an empty control vector were co-transfected with pGL4.29 (Promega). The pGL4.29 vector contains a cyclic adenosine monophosphate (cAMP) response element (CRE) that drives the transcription of the luciferase reporter gene luc2P (Photinus pyralis). luc2P is a synthetically-derived luciferase sequence with humanized codon optimization that is designed for high expression and reduced anomalous transcription.
In this assay, the interaction of an odorant with its cognate olfactory receptor leads to the activation of the human Gαolf G-protein. Gαolf is a stimulatory G-protein (Gαs) and activates adenylate cyclase, which converts adenosine triphosphate (ATP) into cAMP. Therefore, the activity of the transcribed luciferase can be used as an indication of olfactory receptor activation. 24 hours post-transfection the medium was removed from the transfected cells and 30 µl Tyrode's buffer containing the diluted odorants were added and incubated for 6 hours at 37°C. The cells were then transferred into an automated fluorometric imaging plate reader (FLIPR^TETRA, Molecular Devices). Subsequently, 25µl of a mixture composed of Triton X-100 and luciferin (1:1) were added. The addition of this mixture led to cell lyses and allowed interaction of the luciferase with its substrate luciferin resulting in a detectable emission of light.
The data obtained from different well replicates were analyzed with Excel, ScreenWorks, and SigmaPlot 10. The responses of each receptor to the odorants were divided by the mean responses of the receptor towards Tyrode's buffer (fold of change FOC1). The specificity of FOC1 was checked by comparing with a second FOC (FOC2) obtained by stimulating a control sample, consisting in an empty expression vector, with the same odorants and Tyrode's buffer. The mean and standard deviation of the resulting fold of change values were calculated and plotted in vertical bar charts or concentration-response curves fitted by the SigmaPlot 10 software.

A short description of data set [2]: Long-lasting analysis on scent strip (GC-MS with internal standard). Format: physicochemical. To be noted: for POG (GC-MS signal), sample 1-3 / Ratio POG/IS, sample 1-3: individual scent strips, listed as POG. How it is done: In one embodiment, the long-lasting analysis is carried out as follows: 50 µl of a 1 % solution of the identified candidate to be tested in alcohol, preferably ethanol, are applied on a scent strip, preferably a cellulosic scent strip, to be dosed. The strip is allowed to dry under ambient laboratory conditions, with normal room air movement, in particular no fan, heating or any mean or device to accelerate evaporation. After different times, each strip or at least the part of the scent strip including the area where the solution of the identified candidate to be tested was applied is extracted using 3 ml of alcohol, preferably ethanol, containing an internal standard, such as methyl decanoate. The extracts are then analyzed by gas chromatography and the result is normalized for the principal molecular ion of the identified candidate using the value for the internal standard.
50 µl of a 1 % solution of patchouli alcohol in ethanol was added by pipette to the tip to a series of different scent strips (SARL H. GRANGER-VEYRON, Privas, France). The strips were allowed to dry under ambient laboratory conditions.
After different times (t0, t0+1hour, t0+2hours, t0+4hours, t0+8hours) the tip of a strip where the 50 µl of the solution of the tested material had been applied was cut and put in a 30 ml bottle and extracted using 3 ml of ethanol, containing 50 µl of methyl decanoate as internal standard (10000 ppm solution in cyclohexane), added to each bottle. Care was taken to ensure the entire area around the point of application was included in the area that was cut and extracted. The content of the bottles was mixed for 30 min on a roller bed, and 2 ml vials were then filled with each sample.
Samples were triplicated, i.e. 3 scent strip tips were analysed for each time point.
In a first series of experiments, samples taken at t0, t0+1hour and t0+2hours were analyzed by GC-MS on a […] gas chromatography column (column BC-WAX (50m * 0.25mm * 0.15µm) which is a GC Sciences column supplied by Interchim, Montluçon, France).
In a second series of experiments, samples taken at t0, t0+4hours and t0+8hours were analyzed by GC-MS on a non-polar gas chromatography column (HP-5MS UI (30m * 0.25mm * 0.25µm) which is an Agilent column supplied by Chromoptic, Courtaboeuf, France).
In Tables 6-11, PA stands for patchouli alcohol and IS stands for the internal standard, i.e. methyl decanoate. When plotting the residual concentration of patchouli on the scent strip as a function of time, the mean ratio at t0 was normalized to 100 and then t0+1h, t0+2h, t0+4h and t0+8h were calculated; t0 being defined as 2 minutes after dosing the 50 µl of the solution of the tested material, which was applied towards the tip of the scent strip.
A "long-lasting" analysis of pogostone was performed as described in Example 5 with samples taken at t0, t0+1hour and t0+2hours.
In Tables 12-14 herebelow, POG stands for pogostone and IS stands for the internal standard, i.e. methyl decanoate. The mean ratio at t0 was normalized as described in Example 5.

Data set [3] has as its target T1, OR11A1. Conditions: Adipietro et al., PLoS Genet. 2012; cited from earlier work.
The target in data set [4] is T2, OR11L1 (Homo sapiens, UniProt Q8NGX0).
T2 construct: expressed in transfected cells; host or cells: HEKOlf (HEK293 stably expressing human Galpha-olf and bovine CNGA2)
T2 sequence (Q8NGX0 1-322): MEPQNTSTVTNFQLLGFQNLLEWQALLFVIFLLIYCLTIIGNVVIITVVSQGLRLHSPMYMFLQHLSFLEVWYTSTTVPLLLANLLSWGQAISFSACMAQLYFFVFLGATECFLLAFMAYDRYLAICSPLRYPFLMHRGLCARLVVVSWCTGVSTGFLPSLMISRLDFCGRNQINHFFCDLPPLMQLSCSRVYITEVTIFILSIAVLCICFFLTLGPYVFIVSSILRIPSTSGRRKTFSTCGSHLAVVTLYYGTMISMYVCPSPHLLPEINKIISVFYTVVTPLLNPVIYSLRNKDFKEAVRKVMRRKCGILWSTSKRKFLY
Description: CRE-luciferase reporter assay in HEKOlf cells transiently transfected with OR11L1. Format: cell-based. To be noted: Example 3; 10/30/100 µM. How it is done: as §1
All odorants were stored in the dark at 4°C upon delivery. […]
In this assay, the interaction of an odorant with its cognate olfactory receptor leads to the activation of the human Gαolf G-protein. […] The cells were then transferred into an automated fluorometric imaging plate reader (FLIPR^TETRA, Molecular Devices). […]
(§4) The data obtained from different well replicates were analyzed with Excel, ScreenWorks, and SigmaPlot 10. […] The mean and standard deviation of the resulting fold of change values were calculated and plotted in vertical bar charts or concentration-response curves fitted by the SigmaPlot 10 software. […]
(Reporter assays use an easily measured gene product as a stand-in for the process of interest.)

The test system of data set [5] is seven other OR11A1-related olfactory receptors. Put plainly: CRE-luciferase reporter assay on OR11A1 related receptors. Format: cell-based, human. To be noted: 10/30/100 µM. The procedure: as §1, §2, §3
In this assay, the interaction of an odorant with its cognate olfactory receptor leads to the activation of the human Gαolf G-protein. Gαolf is a stimulatory G-protein (Gαs) and activates adenylate cyclase, which converts adenosine triphosphate (ATP) into cAMP. Therefore, the activity of the transcribed luciferase can be used as an indication of olfactory receptor activation. […] The cells were then transferred into an automated fluorometric imaging plate reader (FLIPR^TETRA, Molecular Devices). […]
as §4

Setting [6] is: Example 4, 3, 10 and 30 µM (Figure 5).

Several values for one entry are separate records, joined by “and”; a condition that tells them apart may be missing. Equal values may be shown once. Read-outs that look alike come from different tables or passages of the source.

As to `CC1CCC2C(C)(C)C3CC12CC1OC13C` (centres unmarked) [andrane], in data set [1] (Example 4, up to 100µM), the “activation of OR11A1” value is recorded as “did not activate”.

What is called EC50 is the concentration at which the effect is half-maximal. Higher therefore signals a less potent agent. As to `Cc1cc(O)c(C(=O)CCC(C)C)c(=O)o1` [Pogostone, pogostone], the concentration giving a half-maximal response (EC50) in data set [1] stood at 14.8 ± 3.3 µM. The “Potency and efficacy on OR11A1 (comparison between odorants)” value (from here on “Potency and efficacy on OR11A1”) in data set [1] (Example 4) is “comparable”. In data set [1] (setting [6]), the “activation of OR11A1” value is “able to elicit activation”. Moreover, the retained initial concentration result in data set [2] (after 1 hour on scent strip) is given as “at least 10%”. Also, in data set [2] (t0), the “POG (GC-MS signal), mean value” was 1.11E+06; the “Ratio POG/IS, mean value” was 2.61E-01; the “POG (GC-MS signal), sample 1-3” value is 1.17E+06 and 1.06E+06 and 1.09E+06; the “Ratio POG/IS, sample 1-3” value was 2.92E-01 and 2.45E-01 and 2.48E-01. In data set [2] (t0+1h), the “POG (GC-MS signal), mean value” was found to be 9.55E+05; the “Ratio POG/IS, mean value” is recorded as 2.08E-01; the “POG (GC-MS signal), sample 1-3” value is 1.05E+06 and 9.11E+05 and 9.09E+05; the “Ratio POG/IS, sample 1-3” value was 2.22E-01 and 1.98E-01 and 2.03E-01. Further, in data set [2] (t0+2h), the “POG (GC-MS signal), mean value” stood at 8.34E+05; the “Ratio POG/IS, mean value” turned out to be 1.82E-01; the “POG (GC-MS signal), sample 1-3” value was 8.11E+05 and 8.75E+05 and 8.15E+05; the “Ratio POG/IS, sample 1-3” value is 1.75E-01 and 1.87E-01 and 1.85E-01.

For the compound norpatchouli alcohol, the response in data set [1] was half-maximal at 10.7 ± 2.6 µM (EC50). Besides, the “Potency and efficacy on OR11A1” value in data set [1] (Example 4) is on record as “comparable”. For the same compound, the “activation of OR11A1” value in data set [1] (setting [6]) is given as “able to elicit activation”.

`CCC1(O)C2(C)CCC(C2)C1(C)C` (centres unmarked) [2-ethylfenchol]: the “activation of OR11A1” value in data set [3] is given as “activation of OR11A1”.

As to `CC1(C)C2CCC3(C)C4C(CCC13O)C24` (centres unmarked) [Patcho 315, 6a,7,7-trimethyldecahydro-1,4-methanocyclopropa[de]naphtalen-1-ol], the “activation of OR11A1” value in data set [1] (Example 3, 10/30/100 µM) was “strongly activated”; in data set [1] (setting [6]) it was “strongly activated”. Moreover, the 50% effective concentration (EC50) in data set [1] turned out to be 2.9 ± 0.9 µM. Also, the “Potency and efficacy on OR11A1” value in data set [1] (Example 4) is given as “highest”. In data set [4], the “response in cells transfected with OR11L1” value is on record as “unable to elicit a detectable response”. In data set [5] (Example 3, figure 4), the fold of change entry was “around 1”. Further, in data set [5] (Example 3), the “response of seven other OR11A1-related olfactory receptors” value is listed as “none of the seven other OR11A1-related olfactory receptors responded”.

Take `CC1(C)CCC[C@]2(O)C(C)(C)[C@H]3CC[C@@]12C3` [Terranol, terranol]: the “activation of OR11A1” value in data set [1] (Example 4, up to 100µM) is “did not activate”.
